Data: PMC8653149, “Cyclic Analogs of Desferrioxamine E Siderophore for ^68Ga Nuclear Imaging: Coordination Chemistry and Biological Activity in Staphylococcus aureus” (Inorganic Chemistry, 2021)
Entries after “also recorded” stand apart in the source; their conditions may differ. Read-outs that look alike come from different tables or passages of the source. Marks after values point to notes of the source that are not given here.

Columns and labels:
[1] = cited from earlier work
[2] = cited from earlier work; remark: listed apart in the source
[3] = Water solubility of the ligands; assay type: physicochemical; details: H2O and H2O/DMSO 70/30 w/w mixture; concentrations used in assays
Description: Elaborated solution thermodynamic studies combining several methods were performed in order to investigate those properties. Five FOXE analogs were water soluble in at least 1 × 10^–3 M concentration. […] Major results of physicochemical analysis for analogs characterized by most desirable properties are summarized below.

[4] = Distribution coefficient (logD) of ^68Ga-labeled ligands between octanol and PBS
[5] = Ga(III) complex stability constants by Fe(III)–Ga(III) metal–metal competition, potentiometric and UV–vis pH-metric titrations; assay type: physicochemical
Source text: The next step was to determine the coordination specificity of investigated ligands toward Ga(III) ions. This is a somewhat challenging task because it requires indirect methods since the investigated complexes started to form in a very acidic environment, where potentiometric measurements were not accurate owing to the error of the glass electrode,[55],[56] and gallium is spectroscopically silent in UV–vis. To bypass this inconvenience, we implemented metal–metal competition assays. After addition of a significant molar excess of Ga(III), the LMCT band of Fe(III)-FOXE analog complexes was almost fully silenced as Ga(III) replaced Fe(III) in its complexes (Figure S5). By implementing those spectral changes, we were able to calculate the stability constants of the Ga(III)-FOXE analog species present below or around pH 2, [GaHL]^+ (Table S8). Stability constants for the [GaL] species, present above pH 2, could be determined by potentiometric titrations for Ga(III)-FOX 2-2, 2-3, 2-4, and 3-5, with logβ of [GaHL]^+ fixed in the calculations (Table S8). For Ga(III)-FOX 2-5, we could not observe any deprotonation step using this methodology. To confirm this behavior, UV–vis titration of the Ga(III)-FOX 2-5 analog complex was performed in the 200–300 nm spectral range (Figure S6) corresponding to the hydroxamate groups’ protonation state.[57]−[59] […] Above pH 4, there were no significant changes in maxima localization or absorbance intensity. Above pH 9, absorbance started to rise again, which indicated complex dissociation. […] Overall, the data indicated a decreased stability of [GaL] species when decreasing or increasing the ring size of Ga(III)-FOX 2-5, as reflected by pKNHOH (Table S8). Implementing this full coordination specification of Ga(III)-FOX complexes, we were able to calculate speciation plots which are presented in Figure 1 for the most efficient analogs FOX 2-4 and FOX 2-5, given here as examples, and in Figure S7 for others.
Proposed biomimetic analogs of cyclic siderophore FOXE bind Fe(III) ions starting from pH around 0, and the complexation is essentially complete far below or around pH of 2. Therefore, the stability constants of the first species formed in solution were determined from the spectrophotometric pH-dependent batch titrations carried out in the pH range of around 0.1–2 (Figure S3), by following the changes in the intense LMCT band of the metal complex. These values were further used as constant values in spectrophotometric or potentiometric titrations carried out in the pH range from 2 to 11 (Figure S3) to get the overall stability constants, logβFeL (Table S5). Since Ga(III)-FOX complexes present similar coordination properties, the first species start to form below pH 2 as well. However, in this case, we have used indirect methods to determine stability constants for Ga(III)-FOXE analogs and the Ga(III) complex with native FOXE, as Ga(III) complexes are spectroscopically silent in the UV–vis region. Metal–metal competition titrations were carried out at pH 1.6 for FOX 2-5 and FOX 2-4 and at pH 2 for the rest of the analogs and the native compound. The intense LMCT band of the Fe(III) complex was silenced after addition of a fixed volume of Ga(III) ions (Figure S5).
Potentiometric titrations were performed using an automatic titrator system Titrando 905 (Metrohm) equipped with a 800 Dosino dosing unit and a microburet with a volume of 2 mL. A combined glass electrode was calibrated each day for hydrogen ion concentration by 0.1 M HClO4 with CO2-free 0.1 M NaOH solutions. A stream of high purity grade argon, presaturated with water vapor, passed over the surface of the solution cell, filled with 3 mL of the studied solution. For each system, a minimum of four independent titrations was performed. […]

[6] = design: method as in PMID 11673947; details: cited from earlier work
[7] = design: method as in Ref 3 (supplement); details: ref Ref 3 (supplement); cited from earlier work

In the case of `CC(=O)N(O)CCCCCNC(=O)CCC(=O)N(O)CCCCCNC(=O)CCC(=O)N(O)CCCCCN` [DFOB], the “logβFe(III)L” value [1] is given as 31.10 ^g, the “pFe(III)” value [1] is given as 26.3 ^f and the “logβGa(III)L” value [2] is given as 27.56 ^g. The “pGa(III)” value [2] was 21.6 ^g.

With `O=C1CCCCCCN(O)C(=O)CCNC(=O)CCCCCCN(O)C(=O)CCNC(=O)CCCCCCN(O)C(=O)CCN1` [FOX 2-6] the “solubility” value [3] was “not water soluble in concentrations used during our assays; also recorded: not soluble in H2O nor in a H2O/DMSO 70/30 w/w mixture” and the logD at 20 min [4] was -0.58.

For `O=C1CCC(=O)N(O)CCCCCNC(=O)CCC(=O)N(O)CCCCCNC(=O)CCC(=O)N(O)CCCCCN1` [FOXE, desferrioxamine E], the “pFe(III)” value [1] is given as 27.3 ^c, the “logβ[GaL]” value ([5]; UV-Vis (metal–metal competition) titrations, [L] = 1·10^-4 M, M:L 1:1, T = 25°C, I = 0.1 M NaClO4) is given as 29.79 (1) and the “pGa(III)” value ([5]; calculated, pH 7.4) is given as 25.2. For the same compound, the “logβGa(III)L” value ([5]; potentiometric [L] = 1 × 10^–3 M and UV–vis 5 × 10^–5 M, M:L 1:1, T = 25 °C, I = 0.1 M NaClO4) was 29.79(1), the “E1/2 vs NHE” value [6] was “–477 ^d mv” and the “logβFe(II)” value [6] was 12.1 ^d. The “protonation constant logβ, H2L + H+ ↔ H3L” value [7] was 27.94, the “protonation constant logβ, HL + H+ ↔ H2L” value [7] was 19.31 and the “protonation constant logβ, L + H+ ↔ HL” value [7] was 9.89.

For “transferrin: strong iron-binding ligand present in living organisms, literature comparator for pM”, the “pFe(III)” value [1] is listed as 25.6 ^h and the “pGa(III)” value [2] is listed as 20.3 ^i.
